Test results published in patent publication US10143747B2, “Breast cancer therapeutics” (IMBA—INSTITUT FÜR MOLEKULARE BIOTECHNOLOGIE GMBH, priority 2010, dated 2018).

Tests used:
mammary epithelial cells = test: Epithelial proliferation in mammary glands by in situ Ki67 immunostaining; assay type: in vivo, mouse
Procedure: a,b, Induction of RANKL expression by the progesterone-derivative MPA. Nulliparous wild type females were s.c. implanted with slow-release MPA pellets or treated with surgery sham. a, RANKL mRNA was determined in purified mammary epithelial cells by qRT-PCR three days after implantation. Data are shown as fold change compared to sham treatment (+/−sem) (n=3). b, In situ […] immunostaining of progesterone receptor (PR, red) and RANKL (green) in mammary epithelial cells after 3d MPA treatment. c, Induction of soluble RANKL protein assayed on isolated mammary gland epithelial cells from control, but not in prolactin receptor mutant (PRL-R KO) females on day 3 after s.c. MPA implantation. Mammary glands from sham operated control litter-mates and PRL-R KO females are shown as controls. d, Epithelial proliferation in mammary glands of control littermates and RANK^Δmam females 3 days after sham treatment and MPA implantation. Proliferation was determined by in situ Ki67 immunostaining. e,f, Marked increase of the stem cell-enriched CD24^+CD49^high population (MaSC) in MPA-treated mammary glands in control but not in RANK^Δmam mammary glands. e, Representative FACS profiles showing CD24 and CD49 expression of lineage negative (CD31^− (endothelial cells) CD45^− (hematopoietic cells) […] (erythroid cells)) of mammary MaSCs from MPA- or sham-treated 8-week old virgin females. f, Quantification of MaSC-enriched CD24^+CD49^high population from mammary glands of MPA- or sham-treated virgin RANK^Δmam and littermate control females. For all MaSCs experiments mice were treated with MPA for 3 days. n=4 per group+/−sem. *P<0.05; ***P<0.001 (Student's t-test).
At least 1000 mammary gland epithelial cells were counted per mouse. n=3 mice per genotype. **P<0.005; ***P<0.001 (Student's t-test). b, Quantification of in situ Ki67 immunostained cells per acinus from mammary glands of control littermate and RANK^Δmam females on day 3 after MPA s.c. implantation. […] At least 1000 cells were counted per mammary gland. n=3 per genotype. In b, and c, data are shown as percentage of acini/ducts with low (<20% of epithelial cells are Ki67^+), medium (20-80% of epithelial cells are Ki67^+) and high (>80% of epithelial cells are Ki67^+) numbers of proliferating cells+/−sem. ***P<0.001; *P<0.03 (Student's t-test). d, Epithelial proliferation in mammary glands of control littermates and RANK^Δmam females 1 day after i.p. injection of PBS or RANKL (1 μg). Proliferation was determined in situ Ki67 immunostaining. Magnifications×40. e, Quantification of epithelial proliferation 1 day after i.p. injection of PBS or RANKL (1 μg). Mean percentages of Ki67 positive cells+/−sem are shown. *P<0.03; n=5 (Student's t-test).
For histological analysis, 5 μm sections were cut and stained with hematoxylin and eosin (H&E). Whole-mount staining of mammary glands was performed as described^8. For immunoperoxidase staining paraffin-embedded sections were […] and antigenic epitopes exposed using a 10 mM citrate buffer or microwaving. […] Histomorphometric indices (proliferation and apoptosis) were calculated as the number of positive epithelial cells divided by the total number of epithelial cells, with no fewer than 1000 nuclei for Ki67 stainings and no fewer than 5000 cells for active Caspase 3 staining counted per section. […]

NFκB pathway / CyclinD1 = test: NFκB pathway activation and CyclinD1 expression in mammary epithelial cells after MPA in vivo; design: species or system mouse; conditions: three day MPA treatment, control females
Excerpt: a, Activation of the NFκB pathway and CyclinD1 expression by MPA. Nulliparous RANK^Δmam and littermate control females were s.c. implanted with slow-release MPA pellets or treated with sham surgery. a, In situ immunostaining to detect phosphorylated (P) IκBα in mammary epithelial cells of RANK^Δmam and littermate control females after 3 d MPA treatment. b, Western blot analysis of CyclinD1 and RANKL in isolated mammary epithelial cells from RANK^Δmam and littermate control females after 3 d MPA treatment. Recombinant, murine sRANKL protein is shown for molecular size comparison. β-actin is shown as a loading control.
The human epithelial breast tumor cell line SKBR3 and primary non-transformed mouse mammary epithelial cells were left untreated or stimulated with recombinant murine RANKL^ref. 9. Adenocarcinomas were isolated from control and mutant mice and total protein lysates prepared. Western blotting was carried out using standard protocols. Briefly, blots were blocked with 5% BSA in 1×TBS 0.1% Tween-20 (TBST) for 1 hour and incubated with primary antibody overnight at 4° C. (diluted in TBST according to the manufactures protocol). […]

[1] = test system: human breast cancer cells as well as cultured MECs; test: RANKL mRNA expression in human breast cancer cells and cultured MECs after MPA stimulation in vitro; assay type: cell-based; conditions: MPA 0.1 μM
Procedure: a, Analysis of RANKL mRNA expression in human breast cancer cells as well as cultured MECs after MPA stimulation (0.1 μM). Expression was determined by qRT-PCR in unstimulated cells or cells stimulated with MPA for the indicated time points. […] Data were obtained by qRT-PCR and are shown as fold change compared to MCF10A (b) and purified primary MECs (c) (+/−sem) (n=3).
MPA (medroxyprogesterone acetate, a representive progestin) pellets were implanted into female mice and RANKL expression was assayed. […] Since MPA can induce transcription of prolactin and the prolactin receptor in breast cancer cells and prolactin can directly induce RANKL via Jak2/Stat5 signaling, it was tested whether MPA induces RANKL in the mammary gland of prolactin receptor knock-out mice.

Molecule	MPA-induced proliferation of mammary epithelial cells (mammary epithelial cells; RANKΔmam females, 3 days after MPA implantation)	acini with very low proliferation rates (Ki67) (mammary epithelial cells; RANKΔmam females, day 3 after MPA s.c. implantation)	acini with medium to high proliferation (Ki67) (mammary epithelial cells; control females, day 3 after MPA s.c. implantation)	proliferation of mammary epithelial cells (mammary epithelial cells; wild type, 3 days after MPA implantation)	CyclinD1 protein expression in mammary epithelial cells (NFκB pathway / CyclinD1)	nuclear phosphorylated IκBα in mammary epithelial cells (NFκB pathway / CyclinD1)	RANKL mRNA induction in SKBR3 cells [1]	proliferation of mammary gland epithelial cells (mammary epithelial cells; nulliparous females, 1 day after i.p. injection of RANKL (1 μg))
CC(=O)O[C@]1(C(C)=O)CC[C@H]2[C@@H]3C[C@H](C)C4=CC(=O)CC[C@]4(C)[C@H]3CC[C@@]21C [MPA, medroxyprogesterone acetate]	significantly reduced	more than 60%	~80%	triggers massive proliferation	induction of CyclinD1 protein expression	nuclear accumulation of phosphorylated IκBα	only slightly increased	
RANKL: recombinant RANKL protein, ligand of RANK, used as stimulus (1 μg/ml or 1 μg i.p.) (protein, UniProt O35235 139-316, looked up) Tumor necrosis factor ligand …: FSGAPAMMEGSWLDVAQRGKPEAQPFAHLTINAASIPSGSHKVTLSSWYHDRGWAKISNMTLSNGKLRVNQDGFYYLYANICFRHHETSGSVPTDYLQLMVYVVKTSIKIPSSHNLMKGGSTKNWSGNSEFHFYSINVGGFFKLRAGEEISIQVSNPSLLDPDQDATYFGAFKVQDID								triggered proliferation of mammary gland epithelial cells via RANK
